Measured values from publication PMC4322365, “A Ligand-observed Mass Spectrometry Approach Integrated into the Fragment Based Lead Discovery Pipeline” (Scientific Reports, 2015).
Where “and” joins values, the source holds several entries; their conditions need not be identical. Equal values may be shown once. Read-outs that look alike come from different tables or passages of the source.

How the values were obtained:
HCV RNA polymerase NS5B [1] = biological target: T1, HCV RNA polymerase NS5B (Hepatitis C virus genotype 1b, UniProt P26663); experiment: biochemical; format: binding; details: for S/N in the validation assay / Binding degree (fraction of fragment ligands over total fragment in incubation): 12-hit mixture; for S/N in the validation assay: two replicates separated by a slash, S/N > 10 positive, ND: not detected by MS analysis; for MS S/N: Figure 2B, S/N factors from two independent experiments, legend says validation assay; for LE (ligand efficiency): derived from Kd at P/L 1:1 and heavy atom count; for Binding degree (fraction of fragment ligands over total fragment in incubation): P/L 2:1, 1:1, 1:2, theoretical value for about 1 mM affinity
T1 construct: NS5B with a C-terminal 10-His tag was expressed in E. coli; 10-His (C); made in house; host or cells: E. coli
Method: Binding degree of each fragment represented by the fraction of fragment ligands over the total amount of fragments during incubation reflects the relative order of binding strengths.
In order to determine the dissociation constant of each fragment ligand, we prepared calibration curves for the MS responses of ten fragments in a mixture (Figure S1) and measured the recovery rate of each fragment (Table S3), which were used to derive the actual concentrations of fragments bound to the target. Kd values were then calculated based on the measured concentrations of fragment ligands dissociated from the target (Table S3). […] Ligand efficiency (LE) values were then derived from Kd's as a measure to justify which fragments to further optimize and elaborate in the FBLD pipeline[46][47] (Figure 2A). […] SPR was then implemented for Kd determination for these fragment hits.
All fragments of the library were either purchased from Sigma or synthesized in our laboratory, and their structural diversity was summarized in Figure S4. The mixture was then filtered through an ultrafiltration membrane (50 KD MW cut-off) by centrifugation at 13000 g for 10 min at […]. The protein complexes bound with different fragments were washed twice with 10 mM ammonium acetate (pH 6.5) followed by centrifugation to remove the unbound fragments. The resulting solution of the complexes was transferred to a new centrifugal tube, and the ligands were dissociated from NS5B with 90% methanol in deionized water. The released ligands were then separated from the denatured protein by centrifugation at 13000 g for 10 min at 20°C. The supernatant containing the ligands was evaporated by a speed vacuum, reconstituted in 80% methanol, and analyzed by LC/MS. The protein-free control was prepared by using the binding buffer substitute for NS5B during incubation and it underwent the same process as the NS5B incubated sample. […] Each cocktail was then incubated with NS5B in the binding buffer at the same final concentration as in the primary screen. […] Ultrafiltration and complex dissociation were performed as described earlier to obtain fragment ligands. Samples were all prepared in duplicate and analyzed separately.

HCV RNA polymerase NS5B [2] = biological target: T1, HCV RNA polymerase NS5B; experiment: Ligand-observed MS primary screen of the 384-fragment mixture (ultrafiltration LC/MS); format: binding; details: for S/N in the 1st screen: 384 fragments each 25 μM, NS5B 50 μM, two experimental replicates separated by a slash, S/N > 10 indicates positive hit
Method: A two-stage fragment screening strategy based on the ligand-observed MS analysis was devised that involved a primary screen of 384 fragment as a whole followed by a secondary independent screen of fragment cocktails of less complexity. In the primary screen, a mixture of all 384 fragments was incubated with NS5B protein before the fragment-bound complexes were separated from excessive free fragments using ultrafiltration. […] Fragments dissociated from the target using 90% methanol in deionized water were subjected to LC-MS analysis and those showing MS intensity substantially higher than the negative control (protein-free incubation) were considered positive hits (Figure 1A). Although in our previous assay development we justified an S/N ratio of 2 to be the threshold for positive binding, here we raised the S/N threshold to 10 so as to retain the upmost strong binders given that low-affinity fragments are more inclined to nonspecific adsorption. Impressively, the high selectivity of high-resolution MS (HRMS) analysis enabled rapid screening of the 384-fragment mixture within 20-min analytical time, generating 20 preliminary hits with S/N above 10 (Figure 1B, full data sets in Table S1). It is noted that 20 compounds (5%) in this library are not amenable to our analysis, probably due to the limited sensitivity of the mass spectrometer used in this study or the intrinsically low ionization efficiency of these compounds. Nevertheless, these undetectable fragments were still included in the screening cocktail to maximize the complexity of multiple ligand interactions during incubation. To the best of our knowledge, such a high capacity in mixture screening has never been shown before for fragment libraries, and we anticipate the throughput can be easily boosted to screening >1000 fragments within half an hour using a state-of-the-art mass spectrometer.
In the primary screening, a mixture of 384 fragments (each at a final concentration of 25 μM) and NS5B at 50 μM was prepared in the binding buffer of 20 mM MES (pH 6.5), 300 mM NaCl and 10% glycerol, and incubated for 40 min at 25°C. All fragments of the library were either purchased from Sigma or synthesized in our laboratory, and their structural diversity was summarized in Figure S4. The mixture was then filtered through an ultrafiltration membrane (50 KD MW cut-off) by centrifugation at 13000 g for 10 min at […]. The protein complexes bound with different fragments were washed twice with 10 mM ammonium acetate (pH 6.5) followed by centrifugation to remove the unbound fragments. The resulting solution of the complexes was transferred to a new centrifugal tube, and the ligands were dissociated from NS5B with 90% methanol in deionized water. The released ligands were then separated from the denatured protein by centrifugation at 13000 g for 10 min at 20°C. The supernatant containing the ligands was evaporated by a speed vacuum, reconstituted in 80% methanol, and analyzed by LC/MS. The protein-free control was prepared by using the binding buffer substitute for NS5B during incubation and it underwent the same process as the NS5B incubated sample. In the secondary screen, 384 fragments were divided into 7 cocktails, each consisting of 50 fragments except for the seventh cocktail of 84 fragments. Each cocktail was then incubated with NS5B in the binding buffer at the same final concentration as in the primary screen. […] Ultrafiltration and complex dissociation were performed as described earlier to obtain fragment ligands. Samples were all prepared in duplicate and analyzed separately.
Aliquots of reconstituted ultrafiltrates were analyzed on a Waters Synapt G1 high-dfinition mass spectrometer (Milford, MA) equipped with a Waters Acquity UPLC system. UPLC separation was carried out on a Waters Acquity BEH C18 column (2.1 mm × 50 mm, 1.7 μm) at a flow rate of 200 μL/min, with the mobile phases of water/0.1% formic acid (A) and acetonitrile/0.1% formic acid (B). […]

[3] = P/L = 1:1, protein 25 μM, estimated from MS-measured bound ligand concentration, read-out: Kd
[4] = P/L = 1:2, protein 25 μM, read-out: Kd
[5] = P/L = 2:1, protein 25 μM, read-out: Kd
[6] = Kd, P/L = 1:1, protein 25 μM, estimated from MS-measured bound ligand concentration

T1 sequence (P26663 2420-3010): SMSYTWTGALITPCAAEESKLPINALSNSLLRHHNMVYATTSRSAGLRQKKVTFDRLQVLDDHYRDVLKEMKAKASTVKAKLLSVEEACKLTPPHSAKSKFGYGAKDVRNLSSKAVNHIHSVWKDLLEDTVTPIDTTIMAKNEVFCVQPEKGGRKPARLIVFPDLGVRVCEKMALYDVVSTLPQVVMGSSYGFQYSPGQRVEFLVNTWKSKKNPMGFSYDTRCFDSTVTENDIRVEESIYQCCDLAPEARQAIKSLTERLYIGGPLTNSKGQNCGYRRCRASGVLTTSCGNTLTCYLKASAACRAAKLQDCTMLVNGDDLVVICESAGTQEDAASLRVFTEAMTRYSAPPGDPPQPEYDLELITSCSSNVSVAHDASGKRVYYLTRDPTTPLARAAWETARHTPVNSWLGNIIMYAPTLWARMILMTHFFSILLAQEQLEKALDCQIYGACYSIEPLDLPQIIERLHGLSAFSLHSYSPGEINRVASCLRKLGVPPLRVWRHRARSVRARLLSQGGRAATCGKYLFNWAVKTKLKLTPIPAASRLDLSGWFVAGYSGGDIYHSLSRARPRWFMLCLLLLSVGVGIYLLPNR

## Nc1ccc(C(F)(F)F)cn1 [Fragment 162]
HCV RNA polymerase NS5B [1]
  S/N in the validation assay: 466.0 and 513.0
  MS S/N: 20 and 17
  LE (ligand efficiency): 0.25
HCV RNA polymerase NS5B [1]; [3]
  Kd: 8.96 ± 2.49 mM
HCV RNA polymerase NS5B [1]; [4]
  Kd: 9.53 ± 0.26 mM
HCV RNA polymerase NS5B [1]; [5]
  Kd: 10.2 ± 1.3 mM
HCV RNA polymerase NS5B [2]
  S/N in the 1st screen: 2714 and 3280
HCV RNA polymerase NS5B [2]; Figure 1A workflow example
  Binding: + (Positive fragment binding is indicated by its S/N ratio > 10)

## Cc1ccc2oc(=O)ccc2c1 [Fragment 117]
HCV RNA polymerase NS5B [1]
  S/N in the validation assay: 111.0 and 122.0
  MS S/N: 34 and 40
  LE (ligand efficiency): 0.22
HCV RNA polymerase NS5B [1]; [3]
  Kd: 9.31 ± 0.23 mM
HCV RNA polymerase NS5B [1]; [4]
  Kd: 9.18 ± 2.75 mM
HCV RNA polymerase NS5B [1]; [5]
  Kd: 8.96 ± 0.84 mM
HCV RNA polymerase NS5B [2]
  S/N in the 1st screen: 55.6 and 46.8

## Cn1c(=O)cc(O)c2ccccc21 [Fragment 130]
HCV RNA polymerase NS5B [1]
  Binding degree (fraction of fragment ligands over total fragment in incubation): ~2.4%
  S/N in the validation assay: 378.0 and 376.0
  MS S/N: 48 and 49
  LE (ligand efficiency): 0.30
HCV RNA polymerase NS5B [1]; [3]
  Kd: 1.19 ± 0.08 mM
HCV RNA polymerase NS5B [1]; [4]
  Kd: 1.37 ± 0.04 mM
HCV RNA polymerase NS5B [1]; [5]
  Kd: 0.95 ± 0.08 mM
HCV RNA polymerase NS5B [2]
  S/N in the 1st screen: 93.1 and 102.3
HCV RNA polymerase NS5B [2]; Figure 1A workflow example
  Binding: + (Positive fragment binding is indicated by its S/N ratio > 10)
  S/N: 93

## Cc1nc2ccccc2nc1C [Fragment 339]
HCV RNA polymerase NS5B [1]
  S/N in the validation assay: 172.0 and 223.0
  MS S/N: 66 and 62
  LE (ligand efficiency): 0.22
HCV RNA polymerase NS5B [1]; [6]
  Kd: 10.2 ± 0.45 mM
HCV RNA polymerase NS5B [1]; Kd, P/L = 1:2, protein 25 μM
  Kd: 8.95 ± 2.03 mM
HCV RNA polymerase NS5B [1]; Kd, P/L = 2:1, protein 25 μM
  Kd: 11.2 ± 1.45 mM
HCV RNA polymerase NS5B [2]
  S/N in the 1st screen: 241.4 and 259.8

## Oc1ccc(F)c(Cl)c1 [Fragment 85]
HCV RNA polymerase NS5B [1]
  S/N in the validation assay: 60.0 and 53.0
  MS S/N: 79 and 86
  LE (ligand efficiency): 0.33
HCV RNA polymerase NS5B [1]; [3]
  Kd: 5.67 ± 0.34 mM
HCV RNA polymerase NS5B [1]; [4]
  Kd: 6.8 ± 0.99 mM
HCV RNA polymerase NS5B [1]; [5]
  Kd: 6.2 ± 0.51 mM
HCV RNA polymerase NS5B [2]
  S/N in the 1st screen: 27.9 and 29.7

## N#CCc1ccc(O)cc1 [Fragment 114]
HCV RNA polymerase NS5B [1]
  Binding degree (fraction of fragment ligands over total fragment in incubation): ~2.4%
  S/N in the validation assay: 983.0 and 1198.0
  MS S/N: 103 and 91
  LE (ligand efficiency): 0.40
HCV RNA polymerase NS5B [1]; [6]
  Kd: 1.01 ± 0.06 mM
HCV RNA polymerase NS5B [1]; Kd, P/L = 1:2, protein 25 μM
  Kd: 1.2 mM
HCV RNA polymerase NS5B [1]; Kd, P/L = 2:1, protein 25 μM
  Kd: 1.13 ± 0.25 mM
HCV RNA polymerase NS5B [2]
  S/N in the 1st screen: 17.9 and 20.9

## O=C(O)c1ccc(C(F)(F)F)cc1 [Fragment 204]
HCV RNA polymerase NS5B [1]
  S/N in the validation assay: 21.0 and 23.0
  MS S/N: 22 and 20
  LE (ligand efficiency): 0.25
HCV RNA polymerase NS5B [1]; [3]
  Kd: 4.04 ± 0.34 mM
HCV RNA polymerase NS5B [1]; [4]
  Kd: 5.27 mM
HCV RNA polymerase NS5B [1]; [5]
  Kd: 3.78 ± 0.35 mM
HCV RNA polymerase NS5B [2]
  S/N in the 1st screen: 13.4 and 11.6

## N#CC(c1ccccc1)N1CCOCC1 (stereo not drawn) [Fragment 328]
HCV RNA polymerase NS5B [1]
  S/N in the validation assay: 170.0 and 155.0
  MS S/N: 17 and 16
  LE (ligand efficiency): 0.14
HCV RNA polymerase NS5B [1]; [6]
  Kd: 20 mM
HCV RNA polymerase NS5B [1]; Kd, P/L = 1:2, protein 25 μM
  Kd: 26.4 ± 7.92 mM
HCV RNA polymerase NS5B [1]; Kd, P/L = 2:1, protein 25 μM
  Kd: 23.5 ± 2.65 mM
HCV RNA polymerase NS5B [2]
  S/N in the 1st screen: 124.6 and 138.4

## Cc1cc(N)n(-c2ccccc2)n1 [Fragment 131]
HCV RNA polymerase NS5B [1]
  S/N in the validation assay: 56.0 and 46.0
  MS S/N: 23 and 19
  LE (ligand efficiency): 0.20
HCV RNA polymerase NS5B [1]; [3]
  Kd: 13.4 ± 1.98 mM
HCV RNA polymerase NS5B [1]; [4]
  Kd: 7.29 ± 0.19 mM
HCV RNA polymerase NS5B [1]; [5]
  Kd: 12.7 ± 2.03 mM
HCV RNA polymerase NS5B [2]
  S/N in the 1st screen: 45.7 and 39.3

## Oc1ccc(SC(F)(F)F)cc1 [Fragment 237]
HCV RNA polymerase NS5B [1]
  S/N in the validation assay: 212.0 and 196.0
  MS S/N: 29 and 36
  LE (ligand efficiency): 0.25
HCV RNA polymerase NS5B [1]; [3]
  Kd: 5.64 ± 0.06 mM
HCV RNA polymerase NS5B [1]; [4]
  Kd: 6.45 ± 1.67 mM
HCV RNA polymerase NS5B [1]; [5]
  Kd: 5.19 ± 0.46 mM
HCV RNA polymerase NS5B [2]
  S/N in the 1st screen: 1027 and 1179
